From article PMC3872530 (Molecular microbiology, 2013)

Key:
Assay in all cases: whole-cell EPR of [2Fe-2S] cluster
Assay type in all cases: cell-based
PaSoxR = PaSoxR (Pseudomonas aeruginosa, UniProt Q51506); conditions: oxidant, 40 min, E. coli XA90, EPR at 15 K
EcSoxR = target: T1, EcSoxR (Escherichia coli, UniProt P0ACS2); conditions: oxidant, 40 min, E. coli XA90, EPR at 15 K
T1 sequence (P0ACS2 1-154): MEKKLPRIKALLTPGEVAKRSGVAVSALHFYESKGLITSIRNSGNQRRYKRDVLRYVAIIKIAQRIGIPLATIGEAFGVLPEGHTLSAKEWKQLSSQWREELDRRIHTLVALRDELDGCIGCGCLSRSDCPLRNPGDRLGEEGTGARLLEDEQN

ScSoxR = target: T2, ScSoxR (Streptomyces coelicolor, UniProt Q9S255); conditions: oxidant; 50 uM, 40 min, E. coli XA90, EPR at 15 K
T2 sequence (Q9S255 1-175): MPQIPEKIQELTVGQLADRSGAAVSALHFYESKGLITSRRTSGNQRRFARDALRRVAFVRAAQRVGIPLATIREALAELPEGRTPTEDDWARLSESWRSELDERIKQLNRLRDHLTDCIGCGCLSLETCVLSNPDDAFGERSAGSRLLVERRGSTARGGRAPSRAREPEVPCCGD

Chain of PaSoxR (Q51506 whole entry): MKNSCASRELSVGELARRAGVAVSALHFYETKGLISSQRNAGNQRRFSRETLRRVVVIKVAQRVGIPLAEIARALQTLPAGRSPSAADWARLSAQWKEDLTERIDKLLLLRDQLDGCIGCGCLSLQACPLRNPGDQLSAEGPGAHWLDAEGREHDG

SMILES | whole-cell EPR of [2Fe-2S] cluster (PaSoxR; 100 uM, partial effect) | whole-cell EPR of [2Fe-2S] cluster (EcSoxR; 100 uM) | whole-cell EPR of [2Fe-2S] cluster (PaSoxR; 50 uM) | whole-cell EPR of [2Fe-2S] cluster (ScSoxR) | whole-cell EPR of [2Fe-2S] cluster (EcSoxR; 50 uM)
C[n+]1ccc(-c2cc[n+](C)cc2)cc1 [PQ, paraquat] | PQ was partially effective in oxidizing the [2Fe-2S] cluster | The spectra disappeared upon treatment with PQ and PMS | – | – | –
C[n+]1c2ccccc2nc2ccccc21 [PMS, phenazine methosulfate] | – | – | PMS always silenced the spectral peaks | The cluster was oxidized to its EPR-silent state when the cells were treated with PMS | The spectra disappeared upon treatment with PQ and PMS
